Results published in patent US11899019B2, “Method for predicting efficacy of anti-PD-1 antibody or anti-PD-L1 antibody therapy, method for evaluating cancer grade, and method for enhancing efficacy of anti-PD-1 antibody or anti-PD-L1 antibody therapy” (J-Pharma Co., Ltd., priority 2017, dated 2024).
Values joined by “and” are separate entries in the source; they are usually repeats but may differ in a detail not shown here. Identical values can stand only once. Marks after values point to notes of the source that are not given here.

How the values were obtained:
PD-L1 mRNA [1] = assay: Change of PD-L1 expression level by JPH2O3, quantitative PCR in HuccT1 cells; format: cell-based, human; details: 30 μM, 24 hours treatment
Description: (§1) The LAT1 activity was suppressed using an inhibitor JPH2O3 instead of the gene suppression using siRNA, and it was examined whether results similar to Test Example 5 would be obtained. JPH2O3 is O-(5-amino-2-phenylbenzoxazol-7-yl)methyl-3,5-dichloro-L-tyrosine. HuccT1 cells (derived from human bile duct cancer) and OST cells (derived from human fibrosarcoma of bone) were seeded in culture dishes. After treatment with 30 μM of JPH2O3 (LAT1 selective inhibitor) for 24 hours, cells were collected and mRNA expression levels of PD-L1 were analyzed by quantitative PCR.
(§2) In Table 8, the mRNA expression levels per cell are expressed as relative values, with the expression level of the control that was not treated with JPH2O3 being 1. In both HuccT1 cells and OST cells, the expression of PD-L1 was increased. […] Moreover, since the inhibition of LAT1 increased the expression of PD-L1, it is considered that the LAT1 inhibition therapy can increase the expression level of PD-L1 as well as reduce the expression level or activity of LAT1 in patients. In other words, it is considered that the expression level of PD-L1 in patients can be brought close to those in patients of the P-predominance type by the LAT1 inhibition therapy.

PD-L1 mRNA [2] = assay: Change of PD-L1 expression level by JPH2O3, quantitative PCR in OST cells; format: cell-based, human; details: 30 μM, 24 hours treatment
Description: as §1, §2

[3] = tested on: advanced non-small cell lung cancers (Stage III/IV); assay: Response to nivolumab in non-small cell lung cancer patients, determined by CT in accordance with RECIST; format: in vivo, human
Description: Cancer tissues were collected from 21 patients with first line anticancer therapy resistant/relapsed advanced non-small cell lung cancers (Stage III/IV) incorporated in this examination, and the expressions of LAT1 and PD-L1 were examined by immunohistochemistry using an anti-LAT1 antibody and an anti-PD-L1 antibody. Tumors were determined as positive when the cell membrane of the tumors, together with PD-L1 and LAT1, were stained. Tumors having 10% or more of PD-L1-positive cells were defined as having high PD-L1 expression, and tumors having 25% or more of LAT1-positive cells were defined as having high LAT1 expression.
The response rate was evaluated in accordance with the international criteria for which the tumor sizes are measured by CT and the tumors are classified into response, progression, or stable. The response refers to cases where 30% or more decrease is observed in the longer axis of the tumor after the administration of the agent. The progression refers to cases where the 20% or more increase is observed in the longer axis of the tumor after the administration of the agent. The stable refers to cases where the shrinkage of the tumor is insufficient to classify it as response and the increase of the tumor in comparison with the minimum sum of the longest axis after the start of the therapy is insufficient to classify it as progression.

PD-L1 mRNA [4] = assay: siRNA knockdown, PD-L1 mRNA by quantitative PCR in WiDr cells; format: cell-based, human; details: 48 hours after siRNA introduction, relative value with control siRNA = 1, n = 4
Description: (§3) The suppression of mRNA expression of PD-L1 or LAT1 at the transcriptional level was attempted using siRNA. WiDr cells (derived from human colon-adenocarcinoma), SKN cells (human uterine leiomyosarcoma cells), and H520 cells (human pulmonary squamous cell carcinoma cells) were seeded in culture dishes. siRNA that suppresses the mRNA expression of PD-L1, siRNA that suppresses the mRNA expression of LAT1, or a control siRNA was introduced into cells. As the siRNA, Silencer (registered trademark) Select siRNAs of the Ambion (registered trademark) series from Thermo Fisher Scientific K.K. Specifically, siPD-L1 #2 (siRNA ID: s26548) set forth in SEQ ID NOs: 1 and 2 was used as the siRNA for suppressing the mRNA expression of PD-L1, siLAT1 #3 (siRNA ID: s15653) set forth in SEQ ID NOs: 3 and 4 was used as the siRNA for suppressing the mRNA expression of LAT1, and Silencer Select Negative control #2 (Cat #: 390847) was used as the control siRNA. Cells were collected 48 hours later, when the suppression effect on expression tends to be prominent, and mRNA expression levels of LAT1 and PD-L1 per cell were analyzed by quantitative PCR.
(§4) In Table 7, the mRNA expression levels per cell are expressed as relative values, with the mRNA expression level in the cells, to which the control siRNA was introduced, being 1. […]

LAT1 mRNA [5] = assay: siRNA knockdown, LAT1 mRNA by quantitative PCR in SKN cells; format: cell-based, human; details: 48 hours after siRNA introduction, relative value with control siRNA = 1, n = 4
Description: as §3, §4

PD-L1 mRNA [6] = assay: siRNA knockdown, PD-L1 mRNA by quantitative PCR in SKN cells; format: cell-based, human; details: 48 hours after siRNA introduction, relative value with control siRNA = 1, n = 4
Description: as §3, §4

LAT1 mRNA [7] = assay: siRNA knockdown, LAT1 mRNA by quantitative PCR in H520 cells; format: cell-based, human; details: 48 hours after siRNA introduction, relative value with control siRNA = 1, n = 4
Description: as §3, §4

LAT1 mRNA [8] = assay: siRNA knockdown, LAT1 mRNA by quantitative PCR in WiDr cells; format: cell-based, human; details: 48 hours after siRNA introduction, relative value with control siRNA = 1, n = 4
Description: as §3, §4

PD-L1 mRNA [9] = assay: siRNA knockdown, PD-L1 mRNA by quantitative PCR in H520 cells; format: cell-based, human; details: 48 hours after siRNA introduction, relative value with control siRNA = 1, n = 4
Description: as §3, §4

[10] = relative value with untreated control = 1, n = 4
[11] = relative value with untreated control = 1, n = 4, listed as JPH2O3
[12] = PD-L1 high expression group (8 patients), RECIST
[13] = PD-L1 low expression group (13 patients), RECIST
[14] = high LAT1 expression group (9 patients), RECIST
[15] = low LAT1 expression group (12 patients), RECIST
[16] = single patient of FIG. 8, high PD-L1 and low LAT1 expression

## Nc1cc(COc2c(Cl)cc(C[C@H](N)C(=O)O)cc2Cl)c2oc(-c3ccccc3)nc2c1 [JPH203, O-(5-amino-2-phenylbenzoxazol-7-yl)methyl-3,5-dichloro-L-tyrosine]
PD-L1 mRNA [1]; [10]
  PD-L1 mRNA expression level: 12.26**
PD-L1 mRNA [1]; [11]
  PD-L1 mRNA expression level: increased
PD-L1 mRNA [2]; [10]
  PD-L1 mRNA expression level: 2.79*
PD-L1 mRNA [2]; [11]
  PD-L1 mRNA expression level: increased

## nivolumab
[3]; [12]
  patients exhibited a response: 4 patients
  patients exhibited progression: 1 patient
[3]; [13]
  patients exhibited a response: 3 patients
  patients exhibited progression: 7 patients
[3]; all 21 patients
  patients exhibited a response: 7 patients
  patients exhibited no response: 14 patients
  patients exhibited progression: 7 patients
  response rate: 33%
[3]; [14]
  patients exhibited a response: 1 patient
  patients exhibited progression: 6 patients and 5 patients
[3]; [15]
  patients exhibited a response: 4 patients and 6 patients
  patients exhibited progression: 3 patients and 2 patients
[3]; [16]
  outcome of nivolumab treatment: responded
  progression-free survival: ≥ 10 months
[3]; single patient of FIG. 9, high LAT1 and low PD-L1 expression
  outcome of nivolumab treatment: progression
[3]; single patient of FIG. 10, high PD-L1 and high LAT1 expression
  outcome of nivolumab treatment: progression

## si-LAT1: Silencer Select siRNA set forth in SEQ ID NOs: 3 and 4, suppressing the mRNA expression of LAT1 (chain 1 UGUCCAAUCUAGAUCCCAATT; chain 2 UUGGGAUCUAGAUUGGACACA; chemistry not given here)
PD-L1 mRNA [4]
  PD-L1 mRNA expression level: 1.82***
LAT1 mRNA [5]
  LAT1 mRNA expression level: 0.06
PD-L1 mRNA [6]
  PD-L1 mRNA expression level: 1.04***
LAT1 mRNA [7]
  LAT1 mRNA expression level: 0.11
LAT1 mRNA [8]
  LAT1 mRNA expression level: 0.11
PD-L1 mRNA [9]
  PD-L1 mRNA expression level: 0.82***

## si-PD-L1: Silencer Select siRNA set forth in SEQ ID NOs: 1 and 2, suppressing the mRNA expression of PD-L1 (chain 1 GGACUCACUUGGUAAUUCUTT; chain 2 AGAAUUACCAAGUGAGUCCTT; chemistry not given here)
PD-L1 mRNA [4]
  PD-L1 mRNA expression level: 0.46
LAT1 mRNA [5]
  LAT1 mRNA expression level: 1.52***
PD-L1 mRNA [6]
  PD-L1 mRNA expression level: 0.24
LAT1 mRNA [7]
  LAT1 mRNA expression level: 2.29***
LAT1 mRNA [8]
  LAT1 mRNA expression level: 5.01***
PD-L1 mRNA [9]
  PD-L1 mRNA expression level: 0.37
